We go through four molecules from ChEMBL document CHEMBL1146827, “Synthesis and evaluation as sialidase inhibitors of xylo-configured cyclohexenephosphonates carrying glycerol side-chain mimics” (Bioorg Med Chem Lett, 2004).

SMILES strings stand for the structures.

Assay [1] is described as follows: Compound was tested for inhibitory activity against sialidase from Clostridium perfringens; n.a. = not active.
Assay [2] can be described thus: Compound was tested for inhibitory activity against sialidase from Salmonella Typhimurium. Also on record: species or system Salmonella enterica subsp. enterica serovar Typhimurium.
Assay [3] in a line: Compound was tested for inhibitory activity against sialidase from Vibrio cholerae.

On to `C=CCO[C@@H]1CC(P(=O)(O)O)=C[C@H](O)[C@H]1NC(C)=O.CCN(CC)CC.CCN(CC)CC`, for which the IC50 result is “Not Active” in assay [1], under 2000 µM in assay [2] and 1500 µM in assay [3].
For `CC(=O)N[C@@H]1[C@@H](O)C=C(P(=O)(O)O)C[C@H]1OCC(O)CO.N.N` (stereo partly specified), the IC50 entry in assay [1] is “Not Active”; in assay [2], over 4000 µM.
`CC(=O)N[C@@H]1[C@H](O)C=C(P(=O)(O)O)C[C@H]1OCCO.N.N`: the IC50 entry in assay [1] is “Not Active”; in assay [2], 1800 µM; in assay [3] it was 1600 µM.
As for `CC(=O)N[C@H]1[C@H](O)CC(P(=O)(O)O)=C[C@@H]1O.N.N`, the IC50 result was “Not Active” in assay [1], 1000 µM in assay [2] and 1800 µM in assay [3].

The IC50 is the point on the concentration scale where inhibition reaches its midpoint. Low values mean higher potency, high ones lower potency.
